# Reference: US5439887A, “Peptide having antihypertensive activity free of vascoconstrictor activity” (Roussel-Uclaf, priority 1992, dated 1995)
# Bridge positions count the residues as written; N and C are the ends. Peptide text beside a SMILES is read from it.
# Biological target: endothelin receptor
# Experiment: [125I]endothelin displacement from rat posterior cortex plus cerebellum membranes
# Format: binding
# Conditions: displacement of [125I]endothelin, rat brain membranes, 25° C., 60 minutes
# Procedure: A membrane preparation was made from rat posterior cortex plus cerebellum and the tissue was ground using a POLYTRON in 50 mM Tris buffer pH 7.4. After 30 minutes at 25° C. (water bath), the homogenate was centrifuged at 30,000 g for 15 minutes (2 centrifugations interspersed by taking up in Tris buffer pH 7.4).
# The pellets were resuspended in an incubation buffer (25 mM Tris, pepstatin A 5 μg/ml, aprotinin 3 μg/ml, 0.1 mM PMSF, 3 mM EDTA, 1 mM EGTA pH 7.4).
# 2 ml aliquots were distributed in haemolysis tubes and [125 I]endothelin (approximately 50,000 dpm/tube) and the test product were added. The product was first tested at […] in triplicate. When the test product displaced by more than 50% the radioactivity specifically bound to the receptor, it was tested again in a series of 7 concentrations to determine the concentration which inhibited by 50% the radioactivity specifically bound to the receptor. The 50% inhibitory concentration was thereby determined.
# Non-specific binding was determined by adding 10^-6 M endothelin (in triplicate). The preparation was incubated at 25° C. for 60 minutes, put back on a water bath at 0° C. for 5 minutes, filtered off under reduced pressure and rinsed with […] Tris buffer pH 7.4, and the radioactivity was counted in the presence of Triton scintillant. The result was expressed directly as a 50% inhibitory concentration (IC50), that is to say as a concentration of test product, expressed in nM, required to displace 50% of the specific radioactivity bound to the receptor under study.
row,SMILES,IC50 [nM]
1,CC[C@H](C)[C@H](NC(=O)[C@H](CC(=O)O)NC(=O)[C@H](CC(C)C)NC(=O)[C@H](Cc1c[nH]cn1)NC(=O)[C@@H]1CSSC[C@H](NC(=O)[C@@H](N)CO)C(=O)N[C@@H](CC(N)=O)C(=O)N[C@@H](CO)C(=O)N[C@@H](Cc2c[nH]c3ccccc23)C(=O)N[C@@H](CC(C)C)C(=O)N[C@@H](CC(=O)O)C(=O)N[C@@H](CCCCN)C(=O)N[C@@H](CCC(=O)O)C(=O)N[C@@H](C)C(=O)N[C@@H](C(C)C)C(=O)N[C@@H](Cc2ccc(O)cc2)C(=O)N[C@@H](Cc2ccccc2)C(=O)N1)C(=O)N[C@H](C(=O)N[C@@H](Cc1c[nH]c2ccccc12)C(=O)O)[C@@H](C)CC [Example 16] (H-SCNSWLDKEAVYFCHLDIIW-OH; disulfide 2-14),7.2
2,CC[C@H](C)[C@H](NC(=O)[C@H](CC(=O)O)NC(=O)[C@H](CC(C)C)NC(=O)[C@H](Cc1c[nH]cn1)NC(=O)[C@@H]1CSSC[C@H](NC(=O)[C@@H](N)CO)C(=O)N[C@@H](Cc2ccccc2)C(=O)N[C@@H](CO)C(=O)N[C@@H](CO)C(=O)N[C@@H](CC(C)C)C(=O)N[C@@H](CC(=O)O)C(=O)N[C@@H](CCCCN)C(=O)N[C@@H](CCC(=O)O)C(=O)N[C@@H](C)C(=O)N[C@@H](C(C)C)C(=O)N[C@@H](Cc2ccc(O)cc2)C(=O)N[C@@H](Cc2ccccc2)C(=O)N1)C(=O)N[C@H](C(=O)N[C@@H](Cc1c[nH]c2ccccc12)C(=O)O)[C@@H](C)CC [Example 15] (H-SCFSSLDKEAVYFCHLDIIW-OH; disulfide 2-14),17
3,"CC[C@H](C)[C@H](NC(=O)[C@H](CC(=O)O)NC(=O)[C@H](CC(=O)O)NC(=O)[C@H](Cc1c[nH]cn1)NC(=O)[C@@H]1CSSC[C@H](N)C(=O)N[C@@H](CO)C(=O)N[C@H]2CSSC[C@H](NC(=O)[C@H](CCC(=O)O)NC(=O)[C@H](CCCCN)NC(=O)[C@H](CC(=O)O)NC(=O)[C@H](CC(C)C)NC(=O)[C@H](Cc3c[nH]c4ccccc34)NC(=O)[C@H](CO)NC(=O)[C@H](CC(N)=O)NC2=O)C(=O)N[C@@H](C(C)C)C(=O)N[C@@H](Cc2ccc(O)cc2)C(=O)N[C@@H](Cc2ccccc2)C(=O)N1)C(=O)N[C@H](C(=O)N[C@@H](Cc1c[nH]c2ccccc12)C(=O)O)[C@@H](C)CC [Example 12] (H-CSCNSWLDKECVYFCHDDIIW-OH; disulfide 1-15, 3-11)",6.8
4,"CC[C@H](C)[C@H](NC(=O)[C@H](CC(=O)O)NC(=O)[C@H](CC(C)C)NC(=O)[C@H](Cc1c[nH]cn1)NC(=O)[C@@H]1CSSC[C@H](N)C(=O)N[C@@H](CO)C(=O)N[C@H]2CSSC[C@H](NC(=O)[C@H](CCC(=O)O)NC(=O)[C@H](CCCCN)NC(=O)[C@H](CC(=O)O)NC(=O)[C@H](CC(C)C)NC(=O)[C@H](CC(=O)O)NC(=O)[C@H](CO)NC(=O)[C@H](Cc3ccccc3)NC2=O)C(=O)N[C@@H](C(C)C)C(=O)N[C@@H](Cc2ccc(O)cc2)C(=O)N[C@@H](Cc2ccccc2)C(=O)N1)C(=O)N[C@H](C(=O)N[C@@H](Cc1c[nH]c2ccccc12)C(=O)O)[C@@H](C)CC [Example 9] (H-CSCFSDLDKECVYFCHLDIIW-OH; disulfide 1-15, 3-11)",2.4
